Reference: the supplement of paper PMC10331698
± gives the standard deviation of the averaged measurements.

Columns and labels:
Assay in all cases: level (log10 ratio to DMSO vehicle control); higher = higher biomarker level / cell amount than vehicle control
[1] = compound: Cc1ccc(S(=O)(=O)OCC(F)(F)C(F)(F)C(F)(F)C(F)(F)C(F)(F)C(F)F)cc1 [1H,1H,7H-Perfluoroheptyl 4-methylbenzenesulfonate]; conditions: in DMSO
Procedure: (§1)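 BioMAP Diversity Plus panel of 12 human primary cell co-culture systems (3C, 4H, LPS, SAg, BT, BF4T, BE3C, CASM3C, HDF3CGF, KF3CT, MyoF, Mphg). Compounds were added 1 h before stimulation and left for 24 h (MyoF 48 h; BT 72 h for soluble read-outs or 6 d for IgG). Biomarkers were read by ELISA, cytotoxicity by SRB, PBMC viability and proliferation by Alamar Blue. Each well value was divided by the mean of 8 DMSO control wells on the same plate and log10 transformed; duplicate blinded samples were tested at 4 concentrations.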

[2] = compound: FC(F)(I)C(F)(F)C(F)(F)C(F)(F)C(F)(F)C(F)(F)I [1,6-Diiodoperfluorohexane]; conditions: 6700 nM; in DMSO
Procedure: as §1

[3] = compound: O=C(O)C(F)(F)C(F)(F)C(F)(F)C(F)(F)C(F)(F)C(F)(F)C(F)(F)F [Ammonium perfluorooctanoate]; conditions: in DMSO
Procedure: as §1

[4] = compound: O=S(=O)(OCC(F)(F)F)C(F)(F)C(F)(F)C(F)(F)C(F)(F)F [2,2,2-Trifluoroethyl perfluorobutanesulfonate]; conditions: in DMSO
Procedure: as §1

Perfluoropinacol = compound: OC(C(F)(F)F)(C(F)(F)F)C(O)(C(F)(F)F)C(F)(F)F [Perfluoropinacol]; conditions: in DMSO
Procedure: as §1

[5] = compound: OCC(F)(F)C(F)(F)C(F)(F)C(F)(F)C(F)(F)C(F)(F)C(F)(F)C(F)(F)C(F)(F)C(F)(F)C(F)(F)F [11:1 Fluorotelomer alcohol]; conditions: in DMSO
Procedure: as §1

[6] = compound: OCC(F)(F)C(F)(F)C(F)(F)C(F)(F)C(F)(F)C(F)(F)C(F)(F)C(F)(F)CO [1H,1H,10H,10H-Perfluorodecane-1,10-diol]; conditions: in DMSO
Procedure: as §1

Row | Test System | level (log10) ([1]; 6700 nM) | level (log10) ([1]; 20000 nM) | level (log10) ([1]; 60000 nM) | level (log10) [2] | level (log10) ([3]; 6700 nM) | level (log10) ([3]; 20000 nM) | level (log10) ([3]; 60000 nM) | level (log10) ([4]; 6700 nM) | level (log10) ([4]; 20000 nM) | level (log10) ([4]; 60000 nM) | level (log10) (Perfluoropinacol; 6700 nM) | level (log10) (Perfluoropinacol; 20000 nM) | level (log10) ([5]; 1100 nM) | level (log10) ([5]; 3300 nM) | level (log10) ([5]; 10000 nM) | level (log10) ([6]; 6700 nM) | level (log10) ([6]; 20000 nM) | level (log10) ([6]; 60000 nM)
1 | lMphg:CD62E/E-Selectin | -0.0225 ± 0.0064 | 0.022 ± 0.0014 | 0.0635 ± 0.019 | 0.033 | -0.0205 ± 0.0021 | -0.003 ± 0.058 | 0.0025 ± 0.022 | 0.02 ± 0.031 | 0.0255 ± 0.033 | -0.0435 ± 0.0064 | 0.0515 ± 0.013 | -0.139 ± 0.018 | 0.0715 ± 0.011 | 0.084 ± 0.024 | 0.118 ± 0.012 | -0.0175 ± 0.005 | -0.102 ± 0.11 | -0.8
2 | CASM3C:CD141/Thrombomodulin | -0.002 ± 0.0014 | 0.032 ± 0.0085 | 0.067 ± 0.041 | 0.008 | 0.014 ± 0.035 | 0.0205 ± 0.036 | 0.0465 ± 0.032 | -0.0045 ± 0.0021 | 0.008 ± 0.037 | 0.0045 ± 0.0064 | -0.0085 ± 0.021 | 0.0575 ± 0.0035 | -0.0155 ± 0.012 | -0.012 ± 0.025 | -0.0155 ± 0.005 | -0.0225 ± 0.028 | -0.0335 ± 0.04 | 0.026
3 | HDF3CGF:CXCL11/I-TAC | -0.005 ± 0.027 | 0.036 ± 0.057 | -0.001 ± 0.092 | -0.434 | 0.014 ± 0.0014 | 0.037 ± 0.02 | 0.0555 ± 0.033 | -0.014 ± 0.016 | -0.0495 ± 0.00071 | -0.137 ± 0.016 | -0.062 ± 0.041 | -0.234 ± 0.015 | -0.0245 ± 0.03 | -0.0655 ± 0.005 | -0.0155 ± 0.04 | 0.013 ± 0.0042 | -0.031 ± 0.025 | -0.497
4 | KF3CT:CXCL8/IL-8 | -0.005 ± 0.0028 | -0.103 ± 0.013 | -0.04 ± 0.014 | -0.071 | 0.0075 ± 0.032 | 0.036 ± 0.018 | 0.034 ± 0.02 | -0.0165 ± 0.0035 | 0.0045 ± 0.00071 | 0.017 ± 0.0057 | -0.018 ± 0.011 | -0.005 ± 0.0042 | 0 ± 0.013 | 0.015 | 0.014 ± 0.025 | -0.006 ± 0.021 | 0.0055 ± 0.028 | -0.097
5 | 3C:CD141/Thrombomodulin | 0.008 ± 0.0028 | 0.021 ± 0.0014 | 0.0395 ± 0.00071 | -0.003 | -0.01 ± 0.017 | -0.0185 ± 0.012 | -0.0375 ± 0.032 | -0.024 ± 0.018 | -0.041 ± 0.028 | -0.051 ± 0.016 | -0.0165 ± 0.0021 | -0.033 ± 0.034 | 0.0225 ± 0.021 | 0.0705 ± 0.00071 | 0.09 ± 0.02 | -0.027 ± 0.037 | -0.016 ± 0.0014 | 0.055
6 | HDF3CGF:CXCL9/MIG | -0.002 ± 0.0099 | 0.061 ± 0.025 | 0.048 ± 0.037 | -0.463 | -0.0195 ± 0.0092 | -0.0085 ± 0.025 | -0.0915 ± 0.047 | -0.0075 ± 0.016 | -0.011 ± 0.014 | -0.039 ± 0.0071 | -0.018 ± 0.018 | -0.0675 ± 0.012 | 0.009 | -0.0145 ± 0.00071 | 0.009 ± 0.05 | 0.012 ± 0.013 | -0.037 ± 0.014 | -0.789
7 | HDF3CGF:TIMP-1 | -0.026 ± 0.027 | -0.0285 ± 0.047 | -0.023 ± 0.025 | -0.077 | 0.013 ± 0.0028 | 0.0065 ± 0.016 | 0.008 ± 0.02 | -0.0095 ± 0.042 | 0.039 ± 0.0042 | 0.0325 ± 0.021 | 0.015 ± 0.027 | 0.0205 ± 0.032 | -0.029 ± 0.024 | -0.07 ± 0.0085 | -0.033 ± 0.016 | 0.0025 ± 0.0078 | 0.0135 ± 0.0092 | -0.307
8 | lMphg:M-CSF | -0.0295 ± 0.005 | -0.0305 ± 0.0035 | -0.016 | -0.023 | -0.018 ± 0.0099 | -0.018 ± 0.037 | 0.0055 ± 0.0021 | 0.035 ± 0.017 | 0.014 ± 0.018 | -0.006 ± 0.021 | -0.0155 ± 0.04 | -0.0825 ± 0.013 | -0.0045 ± 0.005 | -0.0195 ± 0.0078 | -0.0735 ± 0.016 | -0.0155 ± 0.005 | -0.031 | -0.097
9 | KF3CT:CXCL9/MIG | -0.005 ± 0.014 | -0.0025 ± 0.012 | -0.008 ± 0.0057 | -0.088 | 0.005 ± 0.0014 | 0.0095 ± 0.0035 | 0.0115 ± 0.016 | 0.023 ± 0.021 | 0.0095 ± 0.028 | 0.0015 ± 0.053 | 0.002 ± 0.0028 | -0.004 ± 0.0071 | 0.0015 ± 0.0035 | -0.004 | 0.005 ± 0.011 | -0.0055 ± 0.0092 | -0.0085 ± 0.005 | -0.195
10 | KF3CT:PAI-I | -0.016 ± 0.02 | 0.0005 ± 0.0078 | -0.032 ± 0.0042 | -0.117 | -0.0015 ± 0.0021 | -0.018 ± 0.0099 | -0.01 ± 0.0099 | 0.0005 ± 0.028 | 0.003 ± 0.033 | 0.0265 ± 0.018 | 0.001 ± 0.0042 | -0.0435 ± 0.012 | -0.002 ± 0.0071 | -0.0055 ± 0.012 | 0.001 ± 0.023 | -0.0015 ± 0.021 | 0.023 ± 0.018 | -0.341
